Reference: US5688913A, “CS-1 peptidomimetics, compositions and methods of using the same” (Cytel Corporation, priority 1995, dated 1997)
Like-named read-outs stand apart in the source and are kept apart here. Square brackets hold non-standard residues; d marks the D form. Peptide text beside a SMILES is read from it. * marks the point of attachment. Cha = N[C@@H](CC1CCCCC1)C(=O)O; Isonicotinoyl = O=C(c1ccncc1)*; X15 = O=S(=O)(c1cccc2cccnc12)*; Phg = N[C@H](C(=O)O)c1ccccc1; Nicotinoyl = O=C(c1cccnc1)*; Piperidide = C1CCN(*)CC1; PhAc = O=C(Cc1ccccc1)*

Target: VLA-4 (Homo sapiens, UniProt P05556+P13612)
Sequence (P13612 34-1032): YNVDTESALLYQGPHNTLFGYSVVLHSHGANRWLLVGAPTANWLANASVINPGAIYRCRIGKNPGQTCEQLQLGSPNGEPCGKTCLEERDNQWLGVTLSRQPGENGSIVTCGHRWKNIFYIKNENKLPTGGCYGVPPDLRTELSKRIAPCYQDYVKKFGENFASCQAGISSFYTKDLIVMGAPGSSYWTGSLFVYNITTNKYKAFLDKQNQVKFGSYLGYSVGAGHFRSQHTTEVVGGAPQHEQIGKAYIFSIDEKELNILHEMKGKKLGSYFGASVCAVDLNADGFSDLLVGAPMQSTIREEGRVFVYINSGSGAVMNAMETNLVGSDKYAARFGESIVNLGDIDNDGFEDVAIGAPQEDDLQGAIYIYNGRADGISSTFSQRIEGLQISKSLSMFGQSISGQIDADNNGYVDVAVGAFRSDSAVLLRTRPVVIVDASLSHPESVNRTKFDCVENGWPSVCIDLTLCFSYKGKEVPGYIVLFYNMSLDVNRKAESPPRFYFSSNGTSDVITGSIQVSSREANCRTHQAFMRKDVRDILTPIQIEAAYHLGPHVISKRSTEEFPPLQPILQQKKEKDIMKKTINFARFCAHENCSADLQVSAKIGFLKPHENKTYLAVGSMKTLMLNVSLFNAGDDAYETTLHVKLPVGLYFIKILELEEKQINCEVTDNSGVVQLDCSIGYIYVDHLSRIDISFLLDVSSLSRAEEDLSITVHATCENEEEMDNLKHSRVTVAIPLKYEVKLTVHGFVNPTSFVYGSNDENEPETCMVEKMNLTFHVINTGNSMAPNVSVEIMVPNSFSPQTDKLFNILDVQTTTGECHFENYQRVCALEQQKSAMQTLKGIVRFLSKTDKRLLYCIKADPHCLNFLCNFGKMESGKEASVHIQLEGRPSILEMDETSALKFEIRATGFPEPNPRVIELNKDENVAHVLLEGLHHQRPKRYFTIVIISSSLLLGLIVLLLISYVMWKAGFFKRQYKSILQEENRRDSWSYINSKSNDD
Sequence (P05556 21-798): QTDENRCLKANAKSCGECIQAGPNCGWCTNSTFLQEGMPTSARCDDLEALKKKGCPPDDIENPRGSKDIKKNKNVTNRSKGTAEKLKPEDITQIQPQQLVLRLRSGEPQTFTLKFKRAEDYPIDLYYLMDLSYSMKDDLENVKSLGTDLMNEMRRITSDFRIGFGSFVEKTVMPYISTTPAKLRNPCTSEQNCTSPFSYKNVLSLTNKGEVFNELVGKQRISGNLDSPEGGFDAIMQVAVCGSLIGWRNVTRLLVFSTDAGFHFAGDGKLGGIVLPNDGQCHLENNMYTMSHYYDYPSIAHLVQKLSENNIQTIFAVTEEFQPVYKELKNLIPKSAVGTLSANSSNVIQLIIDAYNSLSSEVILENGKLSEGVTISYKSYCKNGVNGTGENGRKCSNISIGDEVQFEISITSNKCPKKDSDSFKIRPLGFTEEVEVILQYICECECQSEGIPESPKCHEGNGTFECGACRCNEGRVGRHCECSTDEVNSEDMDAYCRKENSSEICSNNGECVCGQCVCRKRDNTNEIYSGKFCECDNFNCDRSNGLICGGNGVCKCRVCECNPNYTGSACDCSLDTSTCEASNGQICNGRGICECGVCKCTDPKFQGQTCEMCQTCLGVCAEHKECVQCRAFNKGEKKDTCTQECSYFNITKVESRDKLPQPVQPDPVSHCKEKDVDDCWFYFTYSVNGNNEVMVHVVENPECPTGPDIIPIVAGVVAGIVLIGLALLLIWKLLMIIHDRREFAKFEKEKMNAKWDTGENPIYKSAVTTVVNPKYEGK
Test: cell-based
Assay type: cell-based
Design: host or cells: Jurkat (human T lymphoblastic line)
Description: Binding inhibition is measured here as a concentration of peptide that inhibits one-half the binding between a standard number of Jurkat cells and a standard amount of CS-1 peptide bound to the surface of a microtiter plate well. Those concentrations are conveniently expressed as IC50 values, smaller numbers indicating a lower concentration required to inhibit 50 percent binding and therefore greater potency. Further specifics of this assay are provided hereinafter.
Jurkat cells (ATCC TIB 152), a human T lymphoblastic line, labeled with ^51 chromium were used to assay in vitro binding inhibition provided by various peptides discussed herein.
The plates were prepared as follows: The 25-mer CS-1 peptide (SEQ ID NO:1) dissolved at 0.5-1 μg/ml in a buffer of 0.1M NaHCO3 at pH 9.5 that also contained 10 μg/ml of bovine serum albumin (BSA) or a conjugate of the CS-1 peptide linked to ovalbumin (CS-1-OVA) dissolved at 1-2.5 μg/ml in the same buffer was used as the substrate. Each well of the microtiter plates was coated with 50 μl of substrate or buffer alone for controls. The wells were permitted to dry out completely and were then rinsed twice with PBS at pH 7.4. Non-specific binding sites of each well were then blocked using 200 μl per well of RPMI/1 percent BSA for two hours at room temperature. Both solid phase-affixed substrates provided similar results.
Jurkat cells (3-5×10^6 cells) were placed into a 15 ml Falcon™ round-bottom tube with a cap. The tube was centrifuged, and the extra medium was then removed.
Two hundred microliters of a ^51 Cr labeling solution were added to the centrifuged cells and maintained in contact with the cells for 90-120 minutes in a warm room. This procedure typically provides about 50,000-100,000 cpm/well with about 80-100 percent cell viability. Longer contact times provide a greater amount of labeling but lower cell viability.
The labeled cells are washed with (i) complete medium, (ii) 1 mM EDTA/PBS and then (iii) RPM1/1 percent BSA free of serum components. The cells are centrifuged after each washing. The cells are finally resuspended in serum-free RPMI/1 percent BSA at a concentration of 1×10^6 viable cells/ml, which provides a concentration that is diluted by one-half in the assay.
Inhibitor peptides are prepared as stock solutions at 20 mg/ml in DMSO in 1.5 ml cryogenic screwcap vials, and were stored at -70° C. Using Flow™ round-bottom or V-bottom microtiter plates, the inhibitor peptides were prepared at twice the assay concentration in RPMI/1 percent BSA at 60 μl well.
Four initial dilutions were typically used.
The ^51 Cr-labeled cells (1×10^6 cells at 60 μl/well) were then admixed with the diluted peptide solutions. The admixtures were maintained at room temperature (about 22° C.) for 30 minutes.
One hundred microliters of each inhibitor peptide/cell admixture were transferred to the substrate-coated wells. This was done in triplicate for each dilution. The resulting plates were incubated for 30 minutes at 37° C. and then washed gently three times with RPMI/1 percent BSA at 200 μl/well. Binding was observed microscopically, particularly after the second wash.
The bound cells were then lysed by the addition of a 0.5 percent solution of sodium dodecylsulfate in water at 100 μ/l well. The resulting solutions were then processed for counting and calculation of IC50 values following usual procedures. Appropriate positive and negative controls were used with each plate so that the results of separate assays could be normalized and compared.
The data of Table 1 are so normalized.

[1] = normalized IC50 relative to standard peptide of SEQ ID NO:3 (=1), about one-tenth or less of the standard is assigned zero

| SMILES | RELATIVE POTENCY (relative peptide inhibition of VLA-4 binding CS-1) | further results |
| --- | --- | --- |
| CC(C)C[C@H](NC(=O)c1ccccc1)C(=O)N[C@@H](CC(=O)O)C(=O)N[C@H](C(=O)N1CCC[C@H]1C(N)=O)C(C)C [X L D V P benzoyl amide] | – | RELATIVE POTENCY (relative peptide inhibition of VLA-4 binding CS-1) [1]: 37; RELATIVE POTENCY (relative peptide inhibition of VLA-4 binding CS-1) (normalized IC50 relative to standard peptide of SEQ ID NO:3 (=1), about one-tenth or less of the standard is assigned zero, listed as X L D V p benzoyl amide): 20 |
| CC(C)C[C@H](NC(=O)Cc1ccccc1)C(=O)N[C@@H](CC(=O)O)C(=O)N[C@@H](CO)C(=O)N1CCC[C@@H]1C(N)=O [X L D S p phenylacetyl amide] (PhAc-LDS[dP]-NH2) | – | RELATIVE POTENCY (relative peptide inhibition of VLA-4 binding CS-1) [1]: 17 |
| CC(C)C[C@H](NC(=O)Cc1ccccc1)C(=O)N[C@@H](CC(=O)O)C(=O)N[C@H](C(=O)N1CCC[C@@H]1C(N)=O)c1ccccc1 (PhAc-LD[Phg][dP]-NH2) | – | RELATIVE POTENCY (relative peptide inhibition of VLA-4 binding CS-1) [1]: 61 |
| CC(=O)N[C@@H](CC(C)C)C(=O)N[C@@H](CC(=O)O)C(=O)N[C@@H](Cc1ccccc1)C(N)=O [L D F acetyl amide] (Ac-Leu-Asp-Phe-NH2) | < 1 | – |
| CC(C)C[C@H](NC(=O)Cc1ccccc1)C(=O)N[C@@H](CC(=O)O)C(=O)N(Cc1ccccc1)Cc1ccccc1 [X L D Z phenylacetyl dibenzylamide] | – | RELATIVE POTENCY (relative peptide inhibition of VLA-4 binding CS-1) [1]: 0 |
| CC(C)C[C@H](NC(=O)c1cccnc1)C(=O)N[C@@H](CC(=O)O)C(=O)N[C@@H](Cc1ccccc1)C(=O)N1CCC[C@@H]1C(N)=O [X L D F p pyridine-3-carbonyl amide] (Nicotinoyl-LDF[dP]-NH2) | 201 | – |
| CC(C)C[C@H](N)C(=O)N[C@@H](CC(=O)O)C(=O)N[C@@H](Cc1ccccc1)C(=O)N1CCCCC1 [L D F Z free amine piperidinamide] (H-Leu-Asp-Phe-Piperidide) | 0 | – |
| CC(C)C[C@H](NS(=O)(=O)c1cccc2cccnc12)C(=O)N[C@@H](CC(=O)O)C(=O)N[C@@H](Cc1ccccc1)C(=O)N1CCC[C@@H]1C(N)=O [X L D F p 8-quinolinesulfonyl amide] (X15-LDF[dP]-NH2) | 3 | – |
| CC(C)C[C@H](NC(=O)c1ccncc1)C(=O)N[C@@H](CC(=O)O)C(=O)N[C@@H](Cc1ccccc1)C(=O)N1CCC[C@@H]1C(N)=O [X L D F p pyridine-4-carbonyl amide] (Isonicotinoyl-LDF[dP]-NH2) | 656 | – |
| CC[C@H](C)[C@H](N)C(=O)N[C@@H](CC(C)C)C(=O)N[C@@H](CC(=O)O)C(=O)N[C@H](C(=O)N1CCC[C@H]1C(=O)N[C@H](C(=O)N[C@@H](CC(C)C)C(=O)N[C@@H](CC(=O)O)C(=O)N[C@H](C(=O)N1CCC[C@H]1C(N)=O)C(C)C)[C@@H](C)CC)C(C)C [I L D V P I L D V P free amine amide] (H-ILDVPILDVP-NH2) | 2 | – |
| CC(C)C[C@H](N)C(=O)N[C@@H](CC(=O)O)C(=O)N[C@H](C(N)=O)C(C)C [L D V free amine amide, reference compound] (H-Leu-Asp-Val-NH2) | 0 | RELATIVE POTENCY (relative peptide inhibition of VLA-4 binding CS-1) (normalized IC50 relative to standard peptide of SEQ ID NO:3 (=1), about one-tenth or less of the standard is assigned zero, listed as Leu-Asp-Val (LDV) N-free amine C-amide): zero |
| CC[C@H](C)[C@H](N)C(=O)N[C@@H](CC1CCCCC1)C(=O)N[C@@H](CC(=O)O)C(=O)N[C@@H](Cc1ccccc1)C(=O)N1CCC[C@@H]1C(N)=O (H-I[Cha]DF[dP]-NH2) | 1 | – |
| CC[C@H](C)[C@H](N)C(=O)N[C@@H](CC(C)C)C(=O)N[C@@H](CC(=O)O)C(=O)N[C@@H](Cc1ccccc1)C(=O)N1CCC[C@@H]1C(N)=O [I L D F p free amine amide] (H-ILDF[dP]-NH2) | 2 | – |
| CC(C)COC(=O)N[C@@H](CC(=O)O)C(=O)N[C@@H](Cc1ccccc1)C(=O)N1CCCCC1 | 0 | – |
